Results from US20230009626A1 (ICHNOS SCIENCES S.A., priority 2018, published 2023).

Molecular target: HPK1 (MAP4K1) (Homo sapiens, UniProt Q92918)
Test: FRET Assay for HPK1 (MAP4K1): one step binding assay, displacement of labeled tracer
Conditions: for inhibition at 1 µM: 1 μM compound; for inhibition at 1 µM / inhibition at 10 µM: FRET ratio 665/620, percent of control; for inhibition at 10 µM: 10 μM compound; for IC50: dose response curve, nonlinear regression
In short: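 TR-FRET tracer-displacement binding assay. GST-tagged HPK1 (10 nM) and Eu-anti-GST antibody (4 nM) were pre-incubated with compound on ice for 15 min in 50 mM HEPES pH 7.5, 10 mM MgCl2, 1 mM EGTA, 0.01% Brij-35 (3% DMSO final). Kinase Tracer 222 (20 nM) was then added for 1 h at room temperature. IC50 came from nonlinear regression of percent of control; percent inhibition was also given at 1.0 and 10.0 μM.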

Sequence of HPK1 (MAP4K1) (Q92918 whole entry): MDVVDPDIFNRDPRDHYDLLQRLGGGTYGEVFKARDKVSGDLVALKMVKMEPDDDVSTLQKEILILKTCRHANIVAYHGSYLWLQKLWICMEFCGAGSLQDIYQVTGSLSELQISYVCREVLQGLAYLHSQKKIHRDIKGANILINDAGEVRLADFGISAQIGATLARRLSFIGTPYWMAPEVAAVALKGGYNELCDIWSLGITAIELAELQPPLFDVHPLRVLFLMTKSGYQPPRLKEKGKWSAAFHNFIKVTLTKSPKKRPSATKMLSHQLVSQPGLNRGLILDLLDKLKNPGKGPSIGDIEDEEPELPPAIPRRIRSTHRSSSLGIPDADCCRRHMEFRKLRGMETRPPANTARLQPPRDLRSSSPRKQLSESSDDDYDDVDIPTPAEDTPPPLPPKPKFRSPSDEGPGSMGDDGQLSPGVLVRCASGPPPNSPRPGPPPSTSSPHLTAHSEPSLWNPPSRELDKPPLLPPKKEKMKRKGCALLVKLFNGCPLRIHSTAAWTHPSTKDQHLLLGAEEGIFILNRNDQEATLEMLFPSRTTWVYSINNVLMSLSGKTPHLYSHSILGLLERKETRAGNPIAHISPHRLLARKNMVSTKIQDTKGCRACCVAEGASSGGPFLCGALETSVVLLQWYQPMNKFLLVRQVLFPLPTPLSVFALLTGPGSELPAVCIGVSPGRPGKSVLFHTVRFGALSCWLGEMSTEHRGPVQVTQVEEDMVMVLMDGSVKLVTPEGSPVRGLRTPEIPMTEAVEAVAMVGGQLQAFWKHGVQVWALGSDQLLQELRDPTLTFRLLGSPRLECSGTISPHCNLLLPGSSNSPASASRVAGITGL

Row | inhibition at 1 µM | inhibition at 10 µM | IC50 | SMILES
1 | 83.3% | 91.2% | < 50 nM | C/C(Nc1cn[nH]c1)=C1/C(=O)Nc2cnc(-c3cnccc3C)cc21 [Example 64, (Z)-3-(1-((1H-Pyrazol-4-yl)amino)ethylidene)-5-(4-methylpyridin-3-yl)-1H-pyrrolo[2,3-c]pyridin-2(3H)-one]
2 | 72.4% | 84.9% | < 50 nM | C/C(Nc1cc2n(n1)CC(=O)N(C(C)C)C2)=C1/C(=O)Nc2cnc(-c3c(C)cccc3F)cc21 [Example 206, (Z)-2-((1-(5-(2-Fluoro-6-methylphenyl)-2-oxo-1H-pyrrolo[2,3-c]pyridin-3(2H)-ylidene)ethyl)amino)-5-isopropyl-4,5-dihydropyrazolo[1,5-a]pyrazin-6(7H)-one]
3 | 76.2% | 92.9% | 50 to 100 nM | C/C(Nc1ccn(C)n1)=C1/C(=O)Nc2cnc(-c3cccnc3C)cc21 [Example 162, (Z)-3-(1-((1-Methyl-1H-pyrazol-3-yl)amino)ethylidene)-5-(2-methylpyridin-3-yl)-1H-pyrrolo[2,3-c]pyridin-2(3H)-one]
4 | 83.6% | 84.8% | < 50 nM | C/C(Nc1cnn(CCN2CCOCC2)c1)=C1/C(=O)Nc2cnc(-c3cnccc3C)cc21 [Example 87, (Z)-5-(4-Methylpyridin-3-yl)-3-(1-((1-(2-morpholinoethyl)-1H-pyrazol-4-yl)amino)ethylidene)-1H-pyrrolo[2,3-c]pyridin-2(3H)-one]
5 | 79.2% | 80.5% | < 50 nM | COc1cccc(F)c1-c1cc2c(cn1)NC(=O)/C2=C(/C)Nc1cnn([C@@H](C)C#N)c1 [Example 172, (S,Z)-2-(4-((1-(5-(2-Fluoro-6-methoxyphenyl)-2-oxo-1H-pyrrolo[2,3-c]pyridin-3(2H)-ylidene)ethyl)amino)-1H-pyrazol-1-yl)propanenitrile]
6 | 81.7% | 80% | < 50 nM | CCOc1cccc(F)c1-c1cc2c(cn1)NC(=O)/C2=C(/C)Nc1ccc(N2CCNCC2)cc1 [Example 34, (Z)-5-(2-Ethoxy-6-fluorophenyl)-3-(1-((4-(piperazin-1-yl)phenyl)amino)ethylidene)-1H-pyrrolo[2,3-c]pyridin-2(3H)-one]
7 | 79.4% | 84.8% | < 50 nM | CC(=O)N1CCC(n2ccc(N/C(C)=C3\C(=O)Nc4cnc(-c5cnccc5C)cc43)n2)CC1 [Example 130, (Z)-3-(1-((1-(1-Acetylpiperidin-4-yl)-1H-pyrazol-3-yl)amino)ethylidene)-5-(4-methylpyridin-3-yl)-1H-pyrrolo[2,3-c]pyridin-2(3H)-one]
8 | 73.3% | 75.9% | < 50 nM | CNC(=O)Cn1ccc(N/C(C)=C2\C(=O)Nc3cnc(-c4cnccc4C)cc32)n1 [Example 114]
9 | 69.8% | 84% | 100 to 500 nM | CN/C(=C1\C(=O)Nc2ccc(-c3c(F)cccc3OC)cc21)c1ccccc1 [Example 1, 5-(2-fluoro-6-methoxyphenyl)-3-((methylamino)(phenyl)methylene)indolin-2-one]
10 | 71% | 72.7% | < 50 nM | C/C(Nc1ccc(N2CCNCC2)cc1)=C1/C(=O)Nc2cnc(-c3cnccc3C)cc21 [Example 58, (Z)-5-(4-Methylpyridin-3-yl)-3-(1-((4-(piperazin-1-yl)phenyl)amino)ethylidene)-1H-pyrrolo[2,3-c]pyridin-2(3H)-one]
11 | 86.9% | 92.3% | < 50 nM | COc1cccc(F)c1-c1cc2c(cn1)NC(=O)/C2=C(/C)Nc1cnn(C(C)C#N)c1 (stereo not shown) [Example 31, (Z)-2-(4-((1-(5-(2-Fluoro-6-methoxyphenyl)-2-oxo-1H-pyrrolo[2,3-c]pyridin-3(2H)-ylidene)ethyl)amino)-1H-pyrazol-1-yl)propanenitrile]
12 | 81.8% | 88.2% | < 50 nM | C/C(Nc1ccc(C)nc1)=C1/C(=O)Nc2cnc(-c3cnccc3C)cc21 [Example 123, (Z)-5-(4-Methylpyridin-3-yl)-3-(1-((6-methylpyridin-3-yl)amino)ethylidene)-1H-pyrrolo[2,3-c]pyridin-2(3H)-one]
13 | 81.3% | 92% | 100 to 500 nM | COc1cccc(F)c1-c1cc2c(cn1)NC(=O)/C2=C(\Nc1cnn(C)c1)C(C)C [Example 40, (Z)-5-(2-Fluoro-6-methoxyphenyl)-3-(2-methyl-1-((1-methyl-1H-pyrazol-4-yl)amino)propylidene)-1H-pyrrolo[2,3-c]pyridin-2(3H)-one]
14 | 85.2% | 80.1% | < 50 nM | COc1cccc(F)c1-c1cc2c(cc1Cl)NC(=O)/C2=C(/C)Nc1cnn(C)c1 [Example 20]
15 | 88.8% | 93.5% | < 50 nM | COc1cccc(F)c1-c1cc2c(cc1F)NC(=O)/C2=C(/C)Nc1cnn(C)c1 [Example 26]
16 | 75.5% | 75.7% | < 50 nM | COc1ccncc1-c1cc2c(cn1)NC(=O)/C2=C(/C)Nc1ccn(C(C)(C)C#N)n1 [Example 95, (Z)-2-(3-((1-(5-(4-Methoxypyridin-3-yl)-2-oxo-1H-pyrrolo[2,3-c]pyridin-3(2H)-ylidene)ethyl)amino)-1H-pyrazol-1-yl)-2-methylpropanenitrile]
17 | 73% | 76.2% | < 50 nM | CCS(=O)(=O)n1nc(N/C(C)=C2\C(=O)Nc3cnc(-c4cnccc4C)cc32)cc1C [Example 180, (Z)-3-(1-((1-(Ethylsulfonyl)-5-methyl-1H-pyrazol-3-yl)amino)ethylidene)-5-(4-methylpyridin-3-yl)-1H-pyrrolo[2,3-c]pyridin-2(3H)-one]
18 | 87.1% | 85.3% | < 50 nM | CCOc1cccc(F)c1-c1cc2c(cn1)NC(=O)/C2=C(/C)Nc1cnn(C)c1 [Example 25, (Z)-5-(2-Ethoxy-6-fluorophenyl)-3-(1-((1-methyl-1H-pyrazol-4-yl)amino)ethylidene)-1H-pyrrolo[2,3-c]pyridin-2(3H)-one]
19 | 89.8% | 97.1% | < 50 nM | C/C(Nc1ccn(C)n1)=C1/C(=O)Nc2ccc(-c3cnccc3C)nc21 [Example 63, (Z)-3-(1-((1-Methyl-1H-pyrazol-34yl)amino)ethylidene)-5-(4-methylpyridin-3-yl)-1H-pyrrolo[3,2-b]pyridin-2(3H)-one]
20 | 76.3% |  | < 50 nM | C/C(Nc1ccc(N2CCNCC2)cn1)=C1/C(=O)Nc2cnc(-c3cnccc3C)cc21 [Example 74, (Z)-5-(4-Methylpyridin-3-yl)-3-(1-((5-(piperazin-1-yl)pyridin-2-yl)amino)ethylidene)-1H-pyrrolo[2,3-c]pyridin-2(3H)-one]
21 | 71% | 76% | < 50 nM | C/C(Nc1cc(C)n(C[C@@H](C)O)n1)=C1/C(=O)Nc2cnc(-c3cnccc3C)cc21 [Example 188, (R,Z)-3-(1-((1-(2-Hydroxypropyl)-5-methyl 1H-pyrazol-3-yl)amino)ethylidene)-5-(4-methylpyridin-3-yl)-1H-pyrrolo[2,3-c]pyridin-2(3H)-one]
22 | 78.7% | 81.7% | < 50 nM | C/C(Nc1cc2n(n1)CC(=O)N(C(C)C)C2)=C1/C(=O)Nc2cnc(-c3cnccc3C)cc21 [Example 149, (Z)-5-Isopropyl-2-((1-(5-(4-methylpyridin-3-yl)-2-oxo-1H-pyrrolo[2,3-c]pyridin-3(2H)-ylidene)ethyl)amino)-4,5-dihydropyrazolo[1,5-a]pyrazin-6(7H)-one]
23 | 70.9% | 79.7% | 100 to 500 nM | C/C(Nc1cnn(C)c1)=C1/C(=O)Nc2cnc(-c3ccc(F)cc3F)cc21 [Example 24, (Z)-5-(2,4-Difluorophenyl)-3-(1-((1-methyl-1H-pyrazol-4-yl)amino)ethylidene)-1H-pyrrolo[2,3-c]pyridin-2(3H)-one]
24 | 81.6% | 89.7% | < 50 nM | C/C(Nc1ccn(C2(C#N)CC2)n1)=C1/C(=O)Nc2cnc(-c3cnccc3C)cc21 [Example 102, (Z)-1-(3-((1-(5-(4-Methylpyridin-3-yl)-2-oxo-1H-pyrrolo[2,3-c]pyridin-3(2H)-ylidene)ethyl)amino)-1H-pyrazol-1-yl)cyclopropanecarbonitrile]
25 | 82.8% | 87.9% | < 50 nM | CCn1cc(N/C(C)=C2\C(=O)Nc3cnc(-c4cnccc4C)cc32)cn1 [Example 50, (Z)-3-(1-((1-Ethyl-1H-pyrazol-4-yl)amino)ethylidene)-5-(4-methylpyridin-3-yl)-1H-pyrrolo[2,3-c]pyridin-2(3H)-one]
26 | 85.3% | 88.9% | < 50 nM | COc1cccc(F)c1-c1cc2c(cn1)NC(=O)/C2=C(/C)Nc1cnn(C)c1 [Example 16, (Z)-5-(2-Fluoro-6-methoxyphenyl)-3-(1-((1-methyl-1H-pyrazol-4-yl)amino)ethylidene)-1H-pyrrolo[2,3-c]pyridin-2(3H)-one]
27 | 73.3% |  | < 50 nM | C/C(Nc1ncc(C)s1)=C1/C(=O)Nc2cnc(-c3c(C)cccc3F)cc21 [Example 205, (Z)-5-(2-Fluoro-6-methylphenyl)-3-(1-((5-methylthiazol-2-yl)amino)ethylidene)-1H-pyrrolo[2,3-c]pyridin-2(3H)-one]
